One data set has as its system HIV. Briefly: microbe, parasite or virus in culture. Particulars: for IC50: Human immunodeficiency virus 1, MT4, read-out: pIC50 (−log IC50), HIV-infected MT-4 cells (converted); for IC50 / pIC50 (−log IC50): dose achieving 50% protection, MTT, OD 540 nm; for pSI (pCC50-pIC50): selectivity index, ratio of CC50 to IC50, as log difference; for pIC50 (−log IC50): HIV-infected MT-4 cells. Here is the method:
(§1) A rapid, sensitive and automated assay procedure was used for the in vitro evaluation of anti-HIV agents. An […] T4-cell line, MT-4, which was previously shown (Koyanagi et al., Int. J Cancer, 36, 445-451, 1985) to be highly susceptible to and permissive for HIV infection, served as the target cell line. Inhibition of the HIV-induced cytopathic effect was used as the end point. The viability of both HIV- and mock-infected cells was assessed spectrophotometrically via the in situ reduction of 3-(4,5-dimethylthiazol-2-yl)-2,5-diphenyltetrazolium bromide (MTT). The 50% cytotoxic concentration (CC50 in M) was defined as the concentration of compound that reduced the absorbance of the mock-infected control sample by 50%. The percent protection achieved by the compound in HIV-infected cells was calculated by the following formula:
(§2) [formula] whereby (ODT)HIV is the optical density measured with a given concentration of the test compound in HIV-infected cells; (ODC)HIV is the optical density measured for the control untreated HIV-infected cells; (ODC)MOCK is the optical density measured for the control untreated mock-infected cells; all optical density values were determined at 540 nm. The dose achieving 50% protection according to the above formula was defined as the 50% inhibitory concentration (IC50 in M). The ratio of CC50 to IC50 was defined as the selectivity index (SI).
(§3) Table 6 lists the pIC50 (−log IC50), pCC50 (−log CC50) and pSI (pCC50-pIC50) values for the compounds of formula (I).

In the next data set the test system is mock-infected MT-4 cells. Briefly: cytotoxicity in mock-infected MT-4 cells (MTT). How it is done: as §1, §2, §3

Where only a bound is given, the exact number is not on record here.

For the compound `Cc1cc(-c2ccsc2)cc(C)c1Nc1ccnc(Nc2ccc(C#N)cc2)n1` [Compound 21], in the data set with HIV, the IC50 is 3.98 nM and the “pSI (pCC50-pIC50)” value is recorded as −3.5.
With `Cc1cc(/C(=C/C#N)C(C)C)cc(C)c1Nc1ccnc(Nc2ccc(C#N)cc2)n1` [Compound 149], the “pCC50 (−log CC50)” value in the data set with mock-infected MT-4 cells is on record as 5.3 M. Besides, in the data set on HIV, the “pIC50 (−log IC50)” value is on record as 9.1 and the “pSI (pCC50-pIC50)” value is on record as −3.8.
For `Cc1cc(/C=C/C#N)ccc1Oc1ccnc(Nc2ccc(C#N)cc2)n1` [Compound 230], the “pCC50 (−log CC50)” value with mock-infected MT-4 cells was <4.0 M. Besides, in the data set on HIV, the “pIC50 (−log IC50)” value is recorded as 9.2 and the “pSI (pCC50-pIC50)” value is reported as <−5.2.
The matching figures for `Cc1cc(/C(=C\C#N)C(C)C)cc(C)c1Nc1ccnc(Nc2ccc(C#N)cc2)n1` [Compound 150]: 4.8 M, 8.8 and −4.0.
The matching figures for `Cc1cc(/C=C/C#N)cc(Br)c1Nc1ccnc(Nc2ccc(C#N)cc2)n1` [Compound 248]: 5.7 M, 9.3 and −3.5.
The matching figures for `Cc1cc(CC#N)cc(Cl)c1Nc1ccnc(Nc2ccc(C#N)cc2)n1` [Compound 238]: 5.6 M, 9.5 and −3.9.
With `C/C(C#N)=C/c1cc(C)c(Oc2ccnc(Nc3ccc(C#N)cc3)n2)c(C)c1` [Compound 178], the “pCC50 (−log CC50)” value in the data set with mock-infected MT-4 cells was 5.7 M. In the data set with HIV, the “pIC50 (−log IC50)” value worked out at 8.8 and the “pSI (pCC50-pIC50)” value was −3.1.
For `Cc1cc(/C=C/C#N)ccc1Nc1ccnc(Nc2ccc(C#N)cc2)n1` [Compound 237], the “pCC50 (−log CC50)” value in the data set on mock-infected MT-4 cells is <4.0 M. Further, in the data set on HIV, the “pIC50 (−log IC50)” value was determined as 8.9 and the “pSI (pCC50-pIC50)” value is recorded as <−4.9.
For the compound `Cc1cc(/C=C/C(=O)N(C)C)cc(C)c1Oc1ccnc(Nc2ccc(C#N)cc2)n1` [Compound 219], the “pCC50 (−log CC50)” value in the data set with mock-infected MT-4 cells was 5 M. Moreover, in the data set with HIV, the “pIC50 (−log IC50)” value came out at 9.1 and the “pSI (pCC50-pIC50)” value is −4.1.
Turning to `CC(=O)c1cccc(-c2cc(C)c(Nc3ccnc(Nc4ccc(C#N)cc4)n3)c(C)c2)c1` [Compound 34], in the data set with HIV, the IC50 was 10 nM and the “pSI (pCC50-pIC50)” value is reported as −3.2.
Regarding `CC(=CC#N)c1ccc(Oc2ccnc(Nc3ccc(C#N)cc3)n2)c(C)c1` [Compound 232], in the data set with mock-infected MT-4 cells, the “pCC50 (−log CC50)” value is <4.0 M. Moreover, in the data set on HIV, the “pIC50 (−log IC50)” value came out at 8.4 and the “pSI (pCC50-pIC50)” value is <−4.4.
Taken in the same sequence, the figures for `Cc1cc(CN(C)CCC#N)cc(Br)c1Nc1ccnc(Nc2ccc(C#N)cc2)n1` [Compound 241] were 5.3 M, 9.4 and −4.1.
For `CCN(Cc1ccncc1)Cc1cc(C)c(Nc2ccnc(Nc3ccc(C#N)cc3)n2)c(C)c1` [Compound 79], in the data set on HIV, the IC50 is 10 nM and the “pSI (pCC50-pIC50)” value was −2.7.
With `Cc1cc(/C(Cl)=C\C#N)cc(C)c1Nc1ccnc(Nc2ccc(C#N)cc2)n1` [Compound 124], in the data set on HIV, the IC50 is 3.16 nM and the “pSI (pCC50-pIC50)” value is recorded as −3.8.
For `Cc1cc(/C=C\C#N)cc(C)c1Nc1ccnc(Nc2ccc(C#N)cc2)n1` [Compound 10], the “pCC50 (−log CC50)” value in the data set on mock-infected MT-4 cells worked out at 6.3 M. Also, the “pSI (pCC50-pIC50)” value in the data set with HIV is recorded as −2.9.
Turning to `Cc1cc(-c2ccco2)cc(C)c1Nc1ccnc(Nc2ccc(C#N)cc2)n1` [Compound 3], in the data set with HIV, the IC50 is 3.98 nM and the “pSI (pCC50-pIC50)” value was −2.9.
For the compound `Cc1cc(CC(C)C#N)cc(C)c1Nc1ccnc(Nc2ccc(C#N)cc2)n1` (stereo not shown) [Compound 153], the “pCC50 (−log CC50)” value in the data set on mock-infected MT-4 cells was 6.3 M. For the same compound, in the data set on HIV, the “pIC50 (−log IC50)” value is 9.2 and the “pSI (pCC50-pIC50)” value is listed as −2.9.
For `CC/C(=C\C#N)c1cc(C)c(Nc2ccnc(Nc3ccc(C#N)cc3)n2)c(C)c1` [Compound 148], the “pCC50 (−log CC50)” value in the data set with mock-infected MT-4 cells is given as 4.9 M. In addition, in the data set with HIV, the “pIC50 (−log IC50)” value is on record as 8.8 and the “pSI (pCC50-pIC50)” value is −3.9.
Taken in the same sequence, the figures for `Cc1cc(CN(C)CCC#N)cc(C)c1Nc1ccnc(Nc2ccc(C#N)cc2)n1` [Compound 75] were 5.0 M, 9.0 and −4.0.
For `Cc1cc(/C=C/c2cccnc2)cc(C)c1Nc1ccnc(Nc2ccc(C#N)cc2)n1` [Compound 145], in the data set with HIV, the IC50 was 2 nM and the “pSI (pCC50-pIC50)” value is on record as −3.4.
Turning to `CC(C#N)=Cc1ccc(Nc2ccnc(Nc3ccc(C#N)cc3)n2)c(C)c1` [Compound 229], in the data set on mock-infected MT-4 cells, the “pCC50 (−log CC50)” value was <4.0 M. In the data set with HIV, the “pIC50 (−log IC50)” value amounted to 8.8 and the “pSI (pCC50-pIC50)” value is on record as <−4.8.
Taken in the same sequence, the figures for `C/C(C#N)=C/c1cc(C)c(Nc2ccnc(Nc3ccc(C#N)cc3)n2)c(C)c1` [Compound 152] were 4.8 M, 9.1 and −4.3.
Take `Cc1cc(C(O)CC#N)cc(C)c1Nc1ccnc(Nc2ccc(C#N)cc2)n1` (stereo not shown) [Compound 18]: in the data set on HIV, the IC50 is 1.58 nM and the “pSI (pCC50-pIC50)” value is on record as −4.0.
The matching figures for `Cc1cc(Cn2ccnc2)cc(C)c1Nc1ccnc(Nc2ccc(C#N)cc2)n1` [Compound 70]: 7.94 nM and −3.3.
Taken in the same sequence, the figures for `Cc1cc(/C=C(\C#N)c2cccs2)cc(C)c1Nc1ccnc(Nc2ccc(C#N)cc2)n1` [Compound 49] were 10 nM and −3.2.
Turning to `Cc1cc(/C=C/C(=O)N2CCN(C)CC2)cc(C)c1Nc1ccnc(Nc2ccc(C#N)cc2)n1` [Compound 155], in the data set with HIV, the IC50 was 1.58 nM and the “pSI (pCC50-pIC50)” value is −2.5.
On to `Cc1cc(C=CC#N)cc(C)c1Oc1ccnc(Nc2ccc(C#N)cc2)n1` [Compound 25], for which, in the data set with HIV, the “pIC50 (−log IC50)” value worked out at 9 and the “pSI (pCC50-pIC50)” value was −5.
For the compound `Cc1cc(/C=C/C(=O)N(C)C2CCN(C)CC2)cc(C)c1Oc1ccnc(Nc2ccc(C#N)cc2)n1` [Compound 210], in the data set with HIV, the IC50 was 5.01 nM and the “pSI (pCC50-pIC50)” value is given as −3.5.
In the case of `Cc1cc(CN2CCSC2)cc(C)c1Nc1ccnc(Nc2ccc(C#N)cc2)n1` [Compound 78], in the data set with HIV, the IC50 was 3.98 nM and the “pSI (pCC50-pIC50)” value is listed as −3.5.
The matching figures for `Cc1cc(CCC#N)cc(C)c1Nc1ccnc(Nc2ccc(C#N)cc2)n1` [Compound 24]: 0.794 nM and −3.4.
The matching figures for `Cc1cc(/C=C/C(=O)N2CCOCC2)cc(C)c1Oc1ccnc(Nc2ccc(C#N)cc2)n1` [Compound 216]: 6.31 nM and −3.6.
Taken in the same sequence, the figures for `CO/N=C(\c1cc(C)c(Nc2ccnc(Nc3ccc(C#N)cc3)n2)c(C)c1)C(C)C` [Compound 9] were 1.58 nM and −4.
As for `Cc1cc(/C=C/C(=O)N2CC=CC2)cc(C)c1Oc1ccnc(Nc2ccc(C#N)cc2)n1` [Compound 209], in the data set with HIV, the IC50 is 2.51 nM and the “pSI (pCC50-pIC50)” value is −3.7.
`Cc1cc(/C=C/C(=O)N2CCOCC2)cc(C)c1Nc1ccnc(Nc2ccc(C#N)cc2)n1` [Compound 156]: in the data set with HIV, the IC50 is 20 nM and the “pSI (pCC50-pIC50)” value is reported as −2.6.
The matching figures for `Cc1cc(-n2cccc2)cc(C)c1Oc1ccnc(Nc2ccc(C#N)cc2)n1` [Compound 118]: 3.98 nM and <−4.1.

The values above are taken from US10611732B2, “HIV replication inhibiting pyrimidines” (Janssen Pharmaceutica NV, priority 2001, dated 2020).
